Results published in ChEMBL document CHEMBL1201862, “PubChem BioAssay data set” (2004).
Calls of active or inactive are those of the source. Unless noted, no cut-off for these calls is given here.

Experiments:
[1] = Vero cell cytotoxicity, dose response, cytotoxicity control for Vif-APOBEC3G degradation inhibitor project, Vero cells (AID 1117358); type: functional; settings: Human immunodeficiency virus 1, Vero
Streptococcus = experiment: Group A Streptococcus viability loss, dose response, counter-screen for streptokinase expression inhibitor project, luminescence, BacTiterGlo (AID 1915); type: functional, organism-based;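 note: potency for reduction of bacterial viability or growth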
[2] = target: Voltage-gated inwardly rectifying potassium channel KCNH2 (Homo sapiens, UniProt Q12809); experiment: hERG protection from proarrhythmic block, potency, dose response, cell-based, thallium flux (AID 2121); type: ADME
[3] = inhibitors of intracellular T. cruzi replication, confirmation, NIH3T3 host cells, beta-gal luminescence (AID 2044); type: functional, cell-based;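 note: intracellular parasites grown in NIH/3T3 mouse fibroblasts as host cells; luminescent beta-galactosidase reporter signal from transgenic T. cruzi replicating inside host cells; inhibitors lower the luminescence signal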
[4] = test system: Streptococcus sp. 'group A'; experiment: growth inhibition of control SK(-) GAS strain, dose response, counter-screen for streptokinase expression inhibitor project, luminescence, kanamycin, BacTiterGlo, confirmation (AID 1900); type: functional, organism-based
[5] = cytotoxicity toward NIH3T3 fibroblasts, dose response, counter-screen, cell-based, ATP luminescence, mouse fibroblasts (AID 2010); type: functional;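 note: cells exposed to compound for about 90 hours before reading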
Streptokinase A = target: T1, Streptokinase A (Streptococcus pyogenes serotype M1, UniProt P10520); experiment: S. pyogenes streptokinase expression inhibitors, potency, dose response, plasminogen activation absorbance, OD405 (AID 1914); type: functional, Streptococcus pyogenes M1 GAS;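 note: secreted streptokinase activity via plasminogen activation per viability signal from cell pellet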
T1 sequence (P10520 whole entry): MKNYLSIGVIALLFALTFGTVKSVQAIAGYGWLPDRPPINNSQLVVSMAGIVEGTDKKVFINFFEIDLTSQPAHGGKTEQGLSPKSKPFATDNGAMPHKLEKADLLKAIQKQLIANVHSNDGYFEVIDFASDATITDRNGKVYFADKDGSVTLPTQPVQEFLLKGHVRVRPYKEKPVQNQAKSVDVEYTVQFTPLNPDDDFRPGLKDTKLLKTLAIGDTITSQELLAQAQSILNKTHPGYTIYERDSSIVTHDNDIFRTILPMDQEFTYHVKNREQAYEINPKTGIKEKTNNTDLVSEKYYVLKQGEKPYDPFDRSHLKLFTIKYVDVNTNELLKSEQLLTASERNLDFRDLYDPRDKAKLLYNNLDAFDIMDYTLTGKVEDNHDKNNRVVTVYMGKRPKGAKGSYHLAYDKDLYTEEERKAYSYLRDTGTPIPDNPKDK

[6] = target: E3 ubiquitin-protein ligase Mdm2 (Homo sapiens, UniProt Q00987); experiment: enhancers of MDM2-luciferase reporter signal, concentration-effect titration, project on inhibitors of MDM2 ubiquitin ligase, cellular assay, luminescent readout, 384-well plate format (AID 1394); type: functional;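 note: MDM2 E3 inhibitors raise luminescence so EC50 is for signal enhancement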
Vasopressin V1a receptor = Vasopressin V1a receptor (Homo sapiens, UniProt P37288); experiment: Fluorescence-based cell-based high throughput dose response screening assay for agonists of the vasopressin 1 receptor (V1R).; type: functional
[7] = target: T2, Ubiquitin-conjugating enzyme E2 N (Homo sapiens, UniProt P61088); type: functional
T2 sequence (P61088 whole entry): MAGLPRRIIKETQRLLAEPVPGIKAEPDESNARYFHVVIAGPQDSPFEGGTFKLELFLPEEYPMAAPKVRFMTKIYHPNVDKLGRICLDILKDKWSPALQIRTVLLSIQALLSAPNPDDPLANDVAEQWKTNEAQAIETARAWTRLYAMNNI

Oxytocin receptor = Oxytocin receptor (Homo sapiens, UniProt P30559); experiment: Counterscreen for vasopressin 1 receptor (V1R) agonists: Fluorescence-based cell-based high throughput dose response assay for agonists of the Oxytocin Receptor (OXTR). [Related pubchem assays: 2435 (Primary screen (OXTR agonists in singlicate)), 434964 (Confirmation screen (V1R agonists in triplicate)), 434969 (Counterscreen (OXTR agonists in …; type: functional
[8] = target: T3, Apoptotic protease-activating factor 1 (Homo sapiens, UniProt O14727); type: functional
T3 sequence (O14727 whole entry): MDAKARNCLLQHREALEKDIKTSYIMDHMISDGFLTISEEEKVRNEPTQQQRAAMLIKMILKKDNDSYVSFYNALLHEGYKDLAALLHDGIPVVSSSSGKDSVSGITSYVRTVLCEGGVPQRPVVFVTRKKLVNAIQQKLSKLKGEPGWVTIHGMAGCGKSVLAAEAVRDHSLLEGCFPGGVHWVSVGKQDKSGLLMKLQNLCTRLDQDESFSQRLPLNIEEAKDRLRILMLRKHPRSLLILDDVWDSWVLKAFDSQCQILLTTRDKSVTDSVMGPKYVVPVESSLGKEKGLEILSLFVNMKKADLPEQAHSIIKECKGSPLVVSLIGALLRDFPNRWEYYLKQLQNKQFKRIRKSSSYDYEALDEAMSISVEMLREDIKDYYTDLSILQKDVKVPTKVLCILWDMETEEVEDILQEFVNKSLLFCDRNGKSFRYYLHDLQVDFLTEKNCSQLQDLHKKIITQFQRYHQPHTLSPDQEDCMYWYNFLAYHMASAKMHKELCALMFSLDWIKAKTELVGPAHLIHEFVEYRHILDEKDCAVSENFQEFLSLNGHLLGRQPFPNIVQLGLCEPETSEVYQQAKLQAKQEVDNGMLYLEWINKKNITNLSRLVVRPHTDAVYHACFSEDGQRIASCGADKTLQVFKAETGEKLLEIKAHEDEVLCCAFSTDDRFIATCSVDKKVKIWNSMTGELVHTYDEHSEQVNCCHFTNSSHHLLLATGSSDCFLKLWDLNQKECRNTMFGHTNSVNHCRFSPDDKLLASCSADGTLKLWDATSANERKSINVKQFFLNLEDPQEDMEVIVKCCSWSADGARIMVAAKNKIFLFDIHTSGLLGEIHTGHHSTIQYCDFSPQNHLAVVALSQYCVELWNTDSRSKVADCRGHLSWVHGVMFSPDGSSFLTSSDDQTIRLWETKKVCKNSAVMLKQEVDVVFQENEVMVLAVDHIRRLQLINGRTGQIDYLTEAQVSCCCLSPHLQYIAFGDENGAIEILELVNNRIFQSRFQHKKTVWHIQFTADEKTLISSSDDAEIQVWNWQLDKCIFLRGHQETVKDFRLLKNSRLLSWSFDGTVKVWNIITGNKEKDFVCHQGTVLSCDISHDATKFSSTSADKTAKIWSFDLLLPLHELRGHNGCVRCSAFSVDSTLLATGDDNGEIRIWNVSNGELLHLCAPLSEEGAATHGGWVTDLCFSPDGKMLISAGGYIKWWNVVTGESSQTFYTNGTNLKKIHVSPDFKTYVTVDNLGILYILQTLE

[9] = target: T2, Ubiquitin-conjugating enzyme E2 N; type: functional; remark: listed apart in the source
Bcl-2-related protein A1 = target: T4, Bcl-2-related protein A1 (Mus musculus, UniProt Q07440); type: functional;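 note: confirmatory dose–response counterscreen on Bfl-1, used to check hits from a UBC13 polyubiquitin inhibitor campaign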
T4 sequence (Q07440 whole entry): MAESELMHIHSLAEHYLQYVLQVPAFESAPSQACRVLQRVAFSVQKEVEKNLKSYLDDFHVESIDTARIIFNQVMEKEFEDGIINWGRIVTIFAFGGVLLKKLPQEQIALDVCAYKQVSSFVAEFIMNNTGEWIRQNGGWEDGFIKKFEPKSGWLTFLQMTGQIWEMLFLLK

[10] = target: Aryl hydrocarbon receptor (Homo sapiens, UniProt P35869); experiment: Luminescence-based cell-based high throughput dose response assay for activators of the Aryl Hydrocarbon Receptor (AHR). [Related pubchem assays: 2796 (Primary screen (AHR activators in singlicate)), 2845 (Confirmation screen (AHR activators in triplicate)), 434939 (Counterscreen (PXR activators in triplicate)), 2804 (Summary (AHR activators))]; type: ADME
[11] = target: Sphingosine 1-phosphate receptor 2 (Homo sapiens, UniProt O95136); experiment: Dose Response Cell-Based Assay for Agonists of the Sphingosine 1-Phosphate Receptor 2 (S1P2): Purchased Analogues. [Related pubchem assays: 1192, 373, 439 ]; type: functional
[12] = target: Sphingosine 1-phosphate receptor 3 (Homo sapiens, UniProt Q99500); experiment: Dose Response Cell-Based Assay for Agonists of the Sphingosine 1-Phosphate Receptor 3 (S1P3): Purchased Analogues. [Related pubchem assays: 373, 439 ]; type: functional
[13] = target: Sphingosine 1-phosphate receptor 1 (Homo sapiens, UniProt P21453); experiment: Dose Response Cell-Based Assay for Agonists of the Sphingosine 1-Phosphate Receptor 1 (S1P1): Purchased Analogues. [Related pubchem assays: 1192, 373, 439 ]; type: functional
[14] = target: Heat shock protein HSP 90-alpha (Homo sapiens, UniProt P07900); experiment: Luminescence-based dose response biochemical high throughput screening assay for inhibitors of the Heat Shock Protein 90 (HSP90). [Related pubchem assays: 1831 (Summary AID.), 1846 (Confirmation screen.), 1789 (Primary screen.)]

Aryl hydrocarbon receptor, sequence (P35869 whole entry): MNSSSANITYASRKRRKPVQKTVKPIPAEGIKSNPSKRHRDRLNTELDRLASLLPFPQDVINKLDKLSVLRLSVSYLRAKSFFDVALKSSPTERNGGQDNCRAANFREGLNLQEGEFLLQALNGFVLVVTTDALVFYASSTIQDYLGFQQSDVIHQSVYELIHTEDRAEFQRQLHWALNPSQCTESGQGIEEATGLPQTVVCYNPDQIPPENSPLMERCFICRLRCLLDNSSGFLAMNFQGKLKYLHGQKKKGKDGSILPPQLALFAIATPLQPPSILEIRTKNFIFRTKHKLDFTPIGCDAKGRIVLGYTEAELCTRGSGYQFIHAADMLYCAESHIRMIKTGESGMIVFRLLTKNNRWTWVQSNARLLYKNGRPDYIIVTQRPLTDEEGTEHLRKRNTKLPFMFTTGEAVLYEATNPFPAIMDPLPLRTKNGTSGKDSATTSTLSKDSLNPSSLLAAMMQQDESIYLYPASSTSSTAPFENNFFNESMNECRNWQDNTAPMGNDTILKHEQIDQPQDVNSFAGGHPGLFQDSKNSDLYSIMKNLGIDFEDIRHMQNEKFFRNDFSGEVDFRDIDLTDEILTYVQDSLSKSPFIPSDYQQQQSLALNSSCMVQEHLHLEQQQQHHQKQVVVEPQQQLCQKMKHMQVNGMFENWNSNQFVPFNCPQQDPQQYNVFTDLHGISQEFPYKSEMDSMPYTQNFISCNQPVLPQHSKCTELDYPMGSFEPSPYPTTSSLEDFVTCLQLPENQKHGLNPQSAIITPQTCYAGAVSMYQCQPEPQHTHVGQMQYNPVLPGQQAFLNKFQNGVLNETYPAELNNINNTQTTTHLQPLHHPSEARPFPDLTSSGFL
Sphingosine 1-phosphate receptor 3, sequence (Q99500 whole entry): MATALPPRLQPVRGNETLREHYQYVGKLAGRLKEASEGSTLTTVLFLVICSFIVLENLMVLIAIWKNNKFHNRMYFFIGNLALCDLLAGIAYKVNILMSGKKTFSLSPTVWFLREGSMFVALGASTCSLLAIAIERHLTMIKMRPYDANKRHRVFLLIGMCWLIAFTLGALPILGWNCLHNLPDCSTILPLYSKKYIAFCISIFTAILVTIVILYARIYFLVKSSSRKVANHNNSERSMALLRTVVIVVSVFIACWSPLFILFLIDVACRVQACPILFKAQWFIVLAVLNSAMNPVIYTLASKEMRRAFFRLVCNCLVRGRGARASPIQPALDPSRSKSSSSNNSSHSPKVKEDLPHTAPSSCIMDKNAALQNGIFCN
Vasopressin V1a receptor, sequence (P37288 whole entry): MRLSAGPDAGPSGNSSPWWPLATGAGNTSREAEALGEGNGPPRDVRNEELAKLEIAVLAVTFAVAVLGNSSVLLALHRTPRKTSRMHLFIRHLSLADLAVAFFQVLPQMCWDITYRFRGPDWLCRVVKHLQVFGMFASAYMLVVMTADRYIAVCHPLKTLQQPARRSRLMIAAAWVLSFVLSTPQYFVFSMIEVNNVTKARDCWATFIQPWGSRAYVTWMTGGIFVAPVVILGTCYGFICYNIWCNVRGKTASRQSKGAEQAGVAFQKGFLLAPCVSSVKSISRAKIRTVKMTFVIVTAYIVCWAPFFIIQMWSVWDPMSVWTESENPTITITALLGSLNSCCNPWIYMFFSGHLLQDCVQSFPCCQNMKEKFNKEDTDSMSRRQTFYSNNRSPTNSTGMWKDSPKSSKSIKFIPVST
E3 ubiquitin-protein ligase Mdm2, sequence (Q00987 whole entry): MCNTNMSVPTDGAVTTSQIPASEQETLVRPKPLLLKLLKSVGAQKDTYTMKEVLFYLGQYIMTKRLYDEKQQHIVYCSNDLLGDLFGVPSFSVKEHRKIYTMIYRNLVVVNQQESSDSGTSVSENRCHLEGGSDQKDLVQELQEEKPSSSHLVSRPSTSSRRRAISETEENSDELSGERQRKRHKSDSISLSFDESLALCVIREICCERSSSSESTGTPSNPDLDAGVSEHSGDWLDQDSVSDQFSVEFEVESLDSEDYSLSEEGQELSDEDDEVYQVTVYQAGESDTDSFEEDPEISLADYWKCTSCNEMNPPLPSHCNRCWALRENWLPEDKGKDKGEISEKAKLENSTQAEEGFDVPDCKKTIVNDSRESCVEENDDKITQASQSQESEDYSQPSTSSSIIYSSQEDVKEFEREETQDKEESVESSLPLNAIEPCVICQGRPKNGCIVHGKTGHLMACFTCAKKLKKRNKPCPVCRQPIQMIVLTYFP
Sphingosine 1-phosphate receptor 2, sequence (O95136 whole entry): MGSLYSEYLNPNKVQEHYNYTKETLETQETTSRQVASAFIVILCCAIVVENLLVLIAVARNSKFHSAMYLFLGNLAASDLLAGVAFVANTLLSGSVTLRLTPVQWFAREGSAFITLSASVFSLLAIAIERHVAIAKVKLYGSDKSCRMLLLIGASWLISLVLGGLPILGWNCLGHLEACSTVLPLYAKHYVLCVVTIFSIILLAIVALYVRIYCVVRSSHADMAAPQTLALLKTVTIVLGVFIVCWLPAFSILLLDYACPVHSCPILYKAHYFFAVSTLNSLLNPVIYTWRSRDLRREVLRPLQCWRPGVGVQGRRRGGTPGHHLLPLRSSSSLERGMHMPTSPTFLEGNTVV
Oxytocin receptor, sequence (P30559 whole entry): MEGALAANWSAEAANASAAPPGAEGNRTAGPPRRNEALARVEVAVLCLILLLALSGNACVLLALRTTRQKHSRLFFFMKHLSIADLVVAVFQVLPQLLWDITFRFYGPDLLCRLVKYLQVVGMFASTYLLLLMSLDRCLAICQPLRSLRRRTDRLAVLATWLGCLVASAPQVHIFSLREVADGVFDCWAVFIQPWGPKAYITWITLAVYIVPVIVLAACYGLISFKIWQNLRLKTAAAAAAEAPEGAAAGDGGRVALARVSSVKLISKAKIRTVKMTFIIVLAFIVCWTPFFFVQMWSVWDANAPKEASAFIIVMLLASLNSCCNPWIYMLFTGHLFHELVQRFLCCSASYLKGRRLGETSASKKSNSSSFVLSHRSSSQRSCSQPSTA
Voltage-gated inwardly rectifying potassium channel KCNH2, sequence (Q12809 whole entry): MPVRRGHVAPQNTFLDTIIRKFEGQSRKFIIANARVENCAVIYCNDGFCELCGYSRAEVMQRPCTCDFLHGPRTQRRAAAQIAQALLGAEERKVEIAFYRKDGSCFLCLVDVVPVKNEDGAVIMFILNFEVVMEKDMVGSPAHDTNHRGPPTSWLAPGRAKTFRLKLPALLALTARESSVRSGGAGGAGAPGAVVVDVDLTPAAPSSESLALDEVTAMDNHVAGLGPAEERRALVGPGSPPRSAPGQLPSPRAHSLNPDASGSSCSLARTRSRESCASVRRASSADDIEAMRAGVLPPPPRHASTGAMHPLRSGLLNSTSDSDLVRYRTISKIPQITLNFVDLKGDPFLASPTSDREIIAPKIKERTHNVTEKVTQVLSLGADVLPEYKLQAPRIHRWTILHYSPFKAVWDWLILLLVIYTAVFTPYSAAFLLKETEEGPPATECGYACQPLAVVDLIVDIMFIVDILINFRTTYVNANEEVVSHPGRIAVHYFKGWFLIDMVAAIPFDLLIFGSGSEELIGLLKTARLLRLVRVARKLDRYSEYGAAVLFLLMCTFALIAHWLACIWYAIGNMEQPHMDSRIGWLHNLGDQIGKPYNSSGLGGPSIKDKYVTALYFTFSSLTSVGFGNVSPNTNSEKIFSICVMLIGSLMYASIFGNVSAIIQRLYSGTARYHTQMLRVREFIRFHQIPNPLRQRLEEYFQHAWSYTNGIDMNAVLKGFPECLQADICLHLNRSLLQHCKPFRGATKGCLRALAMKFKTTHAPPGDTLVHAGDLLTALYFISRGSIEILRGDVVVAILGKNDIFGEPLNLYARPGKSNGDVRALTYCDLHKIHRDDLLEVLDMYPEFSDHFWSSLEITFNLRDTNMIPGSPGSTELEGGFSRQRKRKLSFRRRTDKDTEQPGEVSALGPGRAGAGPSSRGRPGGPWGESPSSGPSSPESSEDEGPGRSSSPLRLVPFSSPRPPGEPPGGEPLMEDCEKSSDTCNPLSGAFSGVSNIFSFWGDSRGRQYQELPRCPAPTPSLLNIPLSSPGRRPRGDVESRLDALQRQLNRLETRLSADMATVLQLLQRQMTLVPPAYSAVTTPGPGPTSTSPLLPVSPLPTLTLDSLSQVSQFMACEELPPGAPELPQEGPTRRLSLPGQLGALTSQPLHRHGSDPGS
Sphingosine 1-phosphate receptor 1, sequence (P21453 whole entry): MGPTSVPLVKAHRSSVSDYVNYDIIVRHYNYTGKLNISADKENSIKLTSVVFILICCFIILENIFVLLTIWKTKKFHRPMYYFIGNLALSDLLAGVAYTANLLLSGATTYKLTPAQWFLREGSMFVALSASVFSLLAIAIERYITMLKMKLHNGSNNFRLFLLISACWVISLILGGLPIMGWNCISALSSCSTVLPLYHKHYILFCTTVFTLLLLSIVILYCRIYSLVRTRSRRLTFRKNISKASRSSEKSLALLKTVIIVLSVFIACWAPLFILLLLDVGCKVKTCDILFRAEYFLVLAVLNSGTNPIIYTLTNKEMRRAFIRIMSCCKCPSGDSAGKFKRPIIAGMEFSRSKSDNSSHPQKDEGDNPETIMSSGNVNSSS

Compound: Cc1ccc(S(=O)(=O)NCCCOC(=O)Nc2ccncc2)cc1
- CC50 [1]: > 40 µM (active)

Compound: CC(C)COc1ccc(-c2nn(-c3ccccc3)cc2C(=O)Nc2nccs2)cc1
- EC50 (Streptococcus): > 150 µM (not active)
- EC50 [2]: 1.04 µM (active)
- EC50 [3]: 2.21 µM (active)
- EC50 [4]: 48.3 µM (active)
- EC50 [5]: > 30 µM (not active)
- EC50 (Streptokinase A): > 150 µM (not active)

Compound: CCOC(=O)C1CCN(C(=S)Nc2cc(C)ccc2C)CC1
- EC50 [6]: 4.34 µM (not active)

Compound: C#CCOCCOCCOCCNc1nc(N2CCN(C(=O)CCCCCCCCCCNC(=O)[C@@H](CCC(=O)O)n3cc(CCCCCN)nn3)CC2)nc(N2CCN(C(=O)CCCCCCCCCCNC(=O)[C@H](CCCCN)n3cc(C[C@@H](C)CC)nn3)CC2)n1
- EC50 (Vasopressin V1a receptor): 8.37 µM (active)
- IC50 [7]: 4.52 µM (active)
- EC50 (Oxytocin receptor): > 29.9 µM (not active)
- IC50 [8]: 27.2 µM (active)
- IC50 [9]: 11.4 µM (active)
- IC50 (Bcl-2-related protein A1): > 20 µM (inactive)

Compound: COc1ccc(NC(=O)c2cccc3c(Br)cccc23)cc1
- EC50 [10]: 0.965 µM (active)

Compound: O=C(CSc1nnc(-c2ccco2)o1)N(C1CCCCC1)C1CCCCC1
- EC50 [11]: > 10 µM (not active)
- EC50 [12]: 0.11 µM (active)
- EC50 [13]: 0.278 µM (active)

Compound: COC(=O)c1ccccc1OCCCOc1ccc(C=O)cc1OC
- IC50 [14]: 0.314 µM (active)
